From ChEMBL document CHEMBL3297733, “Discovery and optimization of pyrrolo[1,2-a]pyrazinones leads to novel and selective inhibitors of PIM kinases” (Bioorg Med Chem, 2013)

What was measured:
[1] = AUC in BALB/c mouse at 8.2 mg/kg, iv; type: ADME, organism-based; parameters: dose 8.2 mg/kg, route intravenous; details: plasma
[2] = Volume of distribution at steady state in BALB/c mouse at 8.2 mg/kg, iv; type: ADME, organism-based; parameters: dose 8.2 mg/kg, route intravenous; details: in vivo, read-out: Vdss
Cytochrome P450 2C9 = Cytochrome P450 2C9 (Homo sapiens, UniProt P11712); experiment: Inhibition of CYP2C9 (unknown origin); type: ADME
[3] = Intrinsic clearance in mouse hepatocytes; type: ADME, cell-based, Hepatocyte; details: read-out: CLH
[4] = Intrinsic clearance in rat hepatocytes; type: ADME, cell-based, Hepatocyte; details: read-out: CLH
[5] = Cytotoxicity against mouse BA/F3 cells after 72 hrs by CellTitre-Glo assay; type: cell-based; details: BaF3, 72 h
[6] = Cytotoxicity against human Capan1 cells after 72 hrs by CellTitre-Glo assay; type: functional, cell-based; details: CAPAN-1, 72 h
[7] = Cytotoxicity against human NCI-H929 cells after 72 hrs by CellTitre-Glo assay; type: functional, cell-based; details: NCI-H929, 72 h
MV4-11 = experiment: Cytotoxicity against human MV4-11 cells after 72 hrs by CellTitre-Glo assay; type: functional, cell-based; details: MV4-11, 72 h
[8] = target: Serine/threonine-protein kinase pim-3 (Homo sapiens, UniProt Q86V86); experiment: Inhibition of human PIM3 using ARK-RERTYSFGHHA as substrate incubated for 60 mins prior to substrate addition by topcount scintillation counting analysis in presence of [P33gamma]-ATP
[9] = Intrinsic clearance in human liver microsomes after 5 mins by LC-MS/MS analysis; type: ADME; details: read-out: CLH
[10] = target: Vascular endothelial growth factor receptor 3 (Homo sapiens, UniProt P35916); experiment: Inhibition of VGFR3 (unknown origin)
[11] = target: Proto-oncogene tyrosine-protein kinase receptor Ret (Homo sapiens, UniProt P07949); experiment: Inhibition of RET (unknown origin)
[12] = target: Serine/threonine-protein kinase PLK1 (Homo sapiens, UniProt P53350); experiment: Inhibition of PLK1 (unknown origin)
[13] = target: Eukaryotic translation initiation factor 2-alpha kinase 3 (Homo sapiens, UniProt Q9NZJ5); experiment: Inhibition of PERK (unknown origin)
[14] = target: Serine/threonine-protein kinase PAK 4 (Homo sapiens, UniProt O96013); experiment: Inhibition of PAK4 (unknown origin)
[15] = target: Serine/threonine-protein kinase NIM1 (Homo sapiens, UniProt Q8IY84); experiment: Inhibition of NIM1 (unknown origin)
[16] = target: Mitogen-activated protein kinase 14 (Homo sapiens, UniProt Q16539); experiment: Inhibition of P38alpha (unknown origin)
[17] = target: Serine/threonine-protein kinase Nek6 (Homo sapiens, UniProt Q9HC98); experiment: Inhibition of NEK6 (unknown origin)
[18] = target: MAP kinase-activated protein kinase 2 (Homo sapiens, UniProt P49137); experiment: Inhibition of MAPKAPK2 (unknown origin)
[19] = target: Mast/stem cell growth factor receptor Kit (Homo sapiens, UniProt P10721); experiment: Inhibition of KIT (unknown origin)
Insulin receptor = Insulin receptor (Homo sapiens, UniProt P06213); experiment: Inhibition of IR (unknown origin)
[20] = target: Tyrosine-protein kinase JAK1 (Homo sapiens, UniProt P23458); experiment: Inhibition of JAK1 (unknown origin)
[21] = target: Serine/threonine-protein kinase haspin (Homo sapiens, UniProt Q8TF76); experiment: Inhibition of haspin (unknown origin)
[22] = target: Receptor-type tyrosine-protein kinase FLT3 (Homo sapiens, UniProt P36888); experiment: Inhibition of FLT3 (unknown origin)
[23] = target: Mitogen-activated protein kinase 1 (Homo sapiens, UniProt P28482); experiment: Inhibition of ERK2 (unknown origin)
Casein kinase II = Casein kinase II (Homo sapiens, UniProt P19784+P67870+P68400); experiment: Inhibition of CK2 (unknown origin); type: protein-complex assay
[24] = Inhibition of CDK2/CYCA (unknown origin); parameters: species or system Homo sapiens
[25] = target: Protein-tyrosine kinase 6 (Homo sapiens, UniProt Q13882); experiment: Inhibition of BRK (unknown origin)
[26] = target: Mitotic checkpoint serine/threonine-protein kinase BUB1 (Homo sapiens, UniProt O43683); experiment: Inhibition of BUB1 (unknown origin)
[27] = target: RAC-alpha serine/threonine-protein kinase (Homo sapiens, UniProt P31749); experiment: Inhibition of AKT1 (unknown origin)
[28] = target: ALK tyrosine kinase receptor (Homo sapiens, UniProt Q9UM73); experiment: Inhibition of ALK (unknown origin)
[29] = Half life in BALB/c mouse at 8.2 mg/kg, po; type: ADME, organism-based; parameters: dose 8.2 mg/kg, route oral; details: in vivo

Sequence of Serine/threonine-protein kinase PLK1 (P53350 whole entry): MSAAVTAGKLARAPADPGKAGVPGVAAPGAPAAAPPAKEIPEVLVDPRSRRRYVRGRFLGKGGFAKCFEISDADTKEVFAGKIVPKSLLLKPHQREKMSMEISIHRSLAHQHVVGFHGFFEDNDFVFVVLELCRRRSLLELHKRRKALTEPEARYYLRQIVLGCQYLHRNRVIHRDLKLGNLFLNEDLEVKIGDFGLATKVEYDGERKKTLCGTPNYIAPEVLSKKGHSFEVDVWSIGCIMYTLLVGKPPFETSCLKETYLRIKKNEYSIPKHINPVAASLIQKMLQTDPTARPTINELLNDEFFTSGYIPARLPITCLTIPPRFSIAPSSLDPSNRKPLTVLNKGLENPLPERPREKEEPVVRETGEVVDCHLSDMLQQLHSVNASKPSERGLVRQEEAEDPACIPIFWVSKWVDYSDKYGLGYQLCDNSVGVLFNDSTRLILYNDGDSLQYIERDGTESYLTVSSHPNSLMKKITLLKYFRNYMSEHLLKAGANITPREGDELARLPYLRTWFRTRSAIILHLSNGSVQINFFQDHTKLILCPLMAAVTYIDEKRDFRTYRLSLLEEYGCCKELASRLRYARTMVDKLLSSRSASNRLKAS
Sequence of Receptor-type tyrosine-protein kinase FLT3 (P36888 whole entry): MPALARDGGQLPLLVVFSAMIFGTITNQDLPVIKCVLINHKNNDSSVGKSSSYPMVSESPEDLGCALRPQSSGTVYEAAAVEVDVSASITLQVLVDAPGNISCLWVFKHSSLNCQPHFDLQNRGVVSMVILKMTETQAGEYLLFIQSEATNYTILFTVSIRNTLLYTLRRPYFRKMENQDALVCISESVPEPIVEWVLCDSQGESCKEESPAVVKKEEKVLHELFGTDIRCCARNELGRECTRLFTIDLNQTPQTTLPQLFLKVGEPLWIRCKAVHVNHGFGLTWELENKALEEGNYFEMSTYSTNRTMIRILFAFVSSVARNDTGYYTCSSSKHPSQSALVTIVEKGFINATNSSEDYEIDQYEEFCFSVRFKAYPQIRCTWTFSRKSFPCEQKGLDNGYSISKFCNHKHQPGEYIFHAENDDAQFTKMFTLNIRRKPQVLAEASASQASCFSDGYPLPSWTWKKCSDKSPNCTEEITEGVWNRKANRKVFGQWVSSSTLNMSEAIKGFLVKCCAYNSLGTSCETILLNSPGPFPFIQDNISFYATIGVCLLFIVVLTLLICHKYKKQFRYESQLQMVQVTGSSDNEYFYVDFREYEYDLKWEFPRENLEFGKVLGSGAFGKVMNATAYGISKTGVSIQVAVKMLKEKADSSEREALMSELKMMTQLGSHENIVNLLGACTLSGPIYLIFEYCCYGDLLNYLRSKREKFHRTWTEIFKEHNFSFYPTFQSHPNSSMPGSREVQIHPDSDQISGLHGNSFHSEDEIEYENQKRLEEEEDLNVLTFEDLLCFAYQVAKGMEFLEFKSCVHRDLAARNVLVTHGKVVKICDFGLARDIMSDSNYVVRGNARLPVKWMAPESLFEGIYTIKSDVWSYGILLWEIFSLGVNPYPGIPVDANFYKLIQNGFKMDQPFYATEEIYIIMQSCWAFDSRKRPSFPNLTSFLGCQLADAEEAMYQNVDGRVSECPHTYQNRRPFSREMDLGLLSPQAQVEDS
Sequence of RAC-alpha serine/threonine-protein kinase (P31749 whole entry): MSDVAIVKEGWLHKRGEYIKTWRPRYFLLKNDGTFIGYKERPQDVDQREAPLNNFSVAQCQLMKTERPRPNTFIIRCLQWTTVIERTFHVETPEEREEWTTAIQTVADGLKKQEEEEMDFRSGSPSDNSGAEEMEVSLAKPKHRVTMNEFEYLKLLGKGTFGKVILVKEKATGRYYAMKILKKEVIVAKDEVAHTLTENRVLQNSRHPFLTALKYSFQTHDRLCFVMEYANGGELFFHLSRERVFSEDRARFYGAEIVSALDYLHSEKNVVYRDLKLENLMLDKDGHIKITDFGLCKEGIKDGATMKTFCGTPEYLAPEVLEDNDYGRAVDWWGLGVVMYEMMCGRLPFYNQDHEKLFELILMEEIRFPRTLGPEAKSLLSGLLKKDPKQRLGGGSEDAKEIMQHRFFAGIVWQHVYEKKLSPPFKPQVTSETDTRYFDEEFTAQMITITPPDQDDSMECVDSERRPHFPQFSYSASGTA
Sequence of Proto-oncogene tyrosine-protein kinase receptor Ret (P07949 whole entry): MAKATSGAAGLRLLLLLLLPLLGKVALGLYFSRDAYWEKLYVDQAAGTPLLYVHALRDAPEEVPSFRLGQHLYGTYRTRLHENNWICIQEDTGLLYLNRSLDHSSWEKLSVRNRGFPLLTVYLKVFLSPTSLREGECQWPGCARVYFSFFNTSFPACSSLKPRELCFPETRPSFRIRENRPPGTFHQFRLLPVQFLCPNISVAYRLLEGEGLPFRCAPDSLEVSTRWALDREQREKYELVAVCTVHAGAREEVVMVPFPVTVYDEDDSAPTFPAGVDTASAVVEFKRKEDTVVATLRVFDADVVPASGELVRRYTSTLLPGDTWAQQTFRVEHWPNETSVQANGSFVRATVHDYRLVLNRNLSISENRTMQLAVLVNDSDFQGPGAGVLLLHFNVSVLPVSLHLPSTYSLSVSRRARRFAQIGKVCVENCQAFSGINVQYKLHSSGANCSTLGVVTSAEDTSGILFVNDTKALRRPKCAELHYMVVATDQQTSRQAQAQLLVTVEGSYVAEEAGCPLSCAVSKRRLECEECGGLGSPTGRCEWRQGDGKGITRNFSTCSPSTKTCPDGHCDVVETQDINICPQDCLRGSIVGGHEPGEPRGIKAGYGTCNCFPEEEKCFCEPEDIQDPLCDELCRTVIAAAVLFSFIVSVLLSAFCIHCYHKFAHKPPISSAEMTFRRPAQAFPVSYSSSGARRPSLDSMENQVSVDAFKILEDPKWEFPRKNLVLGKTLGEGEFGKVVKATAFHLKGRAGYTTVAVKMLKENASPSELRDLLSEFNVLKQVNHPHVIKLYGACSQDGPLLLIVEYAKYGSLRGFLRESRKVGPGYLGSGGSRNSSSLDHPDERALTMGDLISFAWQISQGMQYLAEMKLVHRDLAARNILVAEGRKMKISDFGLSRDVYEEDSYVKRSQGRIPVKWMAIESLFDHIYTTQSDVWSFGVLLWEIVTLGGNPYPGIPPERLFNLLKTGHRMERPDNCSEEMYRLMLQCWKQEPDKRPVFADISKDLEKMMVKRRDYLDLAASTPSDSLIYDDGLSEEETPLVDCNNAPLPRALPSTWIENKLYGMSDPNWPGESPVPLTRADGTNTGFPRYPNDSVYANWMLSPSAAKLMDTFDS
Sequence of Serine/threonine-protein kinase haspin (Q8TF76 whole entry): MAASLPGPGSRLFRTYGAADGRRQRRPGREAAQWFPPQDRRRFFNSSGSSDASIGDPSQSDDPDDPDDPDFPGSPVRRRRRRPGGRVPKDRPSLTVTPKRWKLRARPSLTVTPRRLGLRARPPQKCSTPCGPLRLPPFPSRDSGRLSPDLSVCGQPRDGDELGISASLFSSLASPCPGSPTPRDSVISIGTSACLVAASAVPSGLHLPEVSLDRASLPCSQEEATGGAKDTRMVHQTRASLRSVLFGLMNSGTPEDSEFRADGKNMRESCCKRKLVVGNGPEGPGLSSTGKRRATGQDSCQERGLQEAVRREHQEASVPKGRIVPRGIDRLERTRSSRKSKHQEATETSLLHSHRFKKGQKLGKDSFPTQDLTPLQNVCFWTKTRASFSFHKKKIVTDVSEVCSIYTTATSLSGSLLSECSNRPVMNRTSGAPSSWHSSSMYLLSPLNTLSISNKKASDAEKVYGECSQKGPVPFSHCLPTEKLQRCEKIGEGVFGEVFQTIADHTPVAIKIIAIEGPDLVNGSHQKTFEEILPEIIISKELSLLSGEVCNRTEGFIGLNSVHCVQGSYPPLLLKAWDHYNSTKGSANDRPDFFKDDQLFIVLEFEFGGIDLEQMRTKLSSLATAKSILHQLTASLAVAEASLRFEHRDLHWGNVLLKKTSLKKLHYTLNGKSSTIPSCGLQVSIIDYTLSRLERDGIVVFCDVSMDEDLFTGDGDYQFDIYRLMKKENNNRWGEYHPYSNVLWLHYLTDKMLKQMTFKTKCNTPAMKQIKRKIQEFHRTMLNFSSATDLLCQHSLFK
Sequence of Mitogen-activated protein kinase 1 (P28482 whole entry): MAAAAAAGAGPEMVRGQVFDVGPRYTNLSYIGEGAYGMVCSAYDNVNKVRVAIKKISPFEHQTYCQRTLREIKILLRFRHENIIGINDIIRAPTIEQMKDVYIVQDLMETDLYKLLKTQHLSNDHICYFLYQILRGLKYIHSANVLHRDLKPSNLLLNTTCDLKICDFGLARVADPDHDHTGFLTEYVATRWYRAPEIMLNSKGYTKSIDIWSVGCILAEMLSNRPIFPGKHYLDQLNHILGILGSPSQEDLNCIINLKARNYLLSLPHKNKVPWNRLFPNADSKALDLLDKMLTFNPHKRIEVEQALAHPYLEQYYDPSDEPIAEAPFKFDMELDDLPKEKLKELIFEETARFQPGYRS
Sequence of Mitogen-activated protein kinase 14 (Q16539 whole entry): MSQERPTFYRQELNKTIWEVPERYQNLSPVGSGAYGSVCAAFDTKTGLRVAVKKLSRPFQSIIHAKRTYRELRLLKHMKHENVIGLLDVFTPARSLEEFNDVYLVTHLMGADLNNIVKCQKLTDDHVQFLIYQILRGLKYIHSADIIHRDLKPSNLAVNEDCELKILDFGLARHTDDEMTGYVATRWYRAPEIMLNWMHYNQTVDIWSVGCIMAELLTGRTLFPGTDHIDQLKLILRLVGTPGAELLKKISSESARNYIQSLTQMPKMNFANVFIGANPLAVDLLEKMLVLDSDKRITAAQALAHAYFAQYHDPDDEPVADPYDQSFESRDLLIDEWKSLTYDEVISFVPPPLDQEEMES

AUC [1]: 8.75 µM·h
Vd [2]: 11.3 L/kg
IC50 (Cytochrome P450 2C9): > 10 µM
CLint scaled [3]: 63 mL/min/kg
CLint scaled [4]: 21 mL/min/kg
IC50 [8]: 0.012 µM
CLint scaled [9]: 5.9 mL/min/kg
IC50 [10]: > 10 µM
IC50 [11]: > 10 µM
IC50 [12]: > 10 µM
IC50 [13]: > 10 µM
IC50 [14]: > 10 µM
IC50 [15]: > 10 µM
IC50 [16]: > 10 µM
IC50 [17]: > 10 µM
IC50 [18]: > 10 µM
IC50 [19]: > 10 µM
IC50 (Insulin receptor): > 10 µM
IC50 [20]: > 10 µM
IC50 [21]: > 10 µM
IC50 [22]: > 10 µM
IC50 [23]: > 10 µM
IC50 (Casein kinase II): > 10 µM
IC50 [24]: > 10 µM
IC50 [25]: > 10 µM
IC50 [26]: > 10 µM
IC50 [27]: > 10 µM
IC50 [28]: > 10 µM
half-life [29]: 1.25 h
Structure (SMILES): CN1CCN(C[C@@H](NC(=O)C[C@H]2CNC(=O)c3cc(-c4cccc(Cl)c4)cn32)C2CCCCC2)CC1
IC50 [5]: > 10 µM
IC50 [6]: 3.7 µM
IC50 [7]: 5.93 µM
IC50 (MV4-11): 1.53 µM
